The record followed here is ChEMBL document CHEMBL1130655, “Nonpeptide oxytocin antagonists: potent, orally bioavailable analogs of L-371,257 containing a 1-R-(pyridyl)ethyl ether terminus” (Bioorg Med Chem Lett, 1998).

The target in series [1] is T1, Oxytocin receptor (Homo sapiens, UniProt P30559).
T1 sequence (P30559 whole entry): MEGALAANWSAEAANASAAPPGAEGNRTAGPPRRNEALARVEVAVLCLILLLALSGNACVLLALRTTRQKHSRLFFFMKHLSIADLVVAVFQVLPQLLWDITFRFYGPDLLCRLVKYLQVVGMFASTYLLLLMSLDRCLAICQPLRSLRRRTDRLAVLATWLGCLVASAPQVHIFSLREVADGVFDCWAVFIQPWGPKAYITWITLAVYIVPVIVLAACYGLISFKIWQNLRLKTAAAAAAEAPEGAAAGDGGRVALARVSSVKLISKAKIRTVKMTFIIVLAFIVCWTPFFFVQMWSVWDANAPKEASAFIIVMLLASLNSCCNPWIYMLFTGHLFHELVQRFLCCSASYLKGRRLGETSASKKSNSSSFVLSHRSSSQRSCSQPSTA
Kind of series: Binding affinity against cloned human oxytocin receptor from human embryonic kidney cells. The series is classed as cell-based.

Series [2] is described as follows: Half life period after 3 mg/kg iv administration in rat. The arrangement: dose 3 mg/kg, route intravenous. The class given is ADME, organism-based. The following applies: in vivo.
For series [3], the species on record is Rattus norvegicus. In words: Compound was evaluated for its ability to antagonize rat OT-induced uterine contractile response in the vehicle treated group by 50%. The class given is functional.
For series [4], the target named is T2, Oxytocin receptor (Rattus norvegicus, UniProt P70536).
T2 sequence (P70536 whole entry): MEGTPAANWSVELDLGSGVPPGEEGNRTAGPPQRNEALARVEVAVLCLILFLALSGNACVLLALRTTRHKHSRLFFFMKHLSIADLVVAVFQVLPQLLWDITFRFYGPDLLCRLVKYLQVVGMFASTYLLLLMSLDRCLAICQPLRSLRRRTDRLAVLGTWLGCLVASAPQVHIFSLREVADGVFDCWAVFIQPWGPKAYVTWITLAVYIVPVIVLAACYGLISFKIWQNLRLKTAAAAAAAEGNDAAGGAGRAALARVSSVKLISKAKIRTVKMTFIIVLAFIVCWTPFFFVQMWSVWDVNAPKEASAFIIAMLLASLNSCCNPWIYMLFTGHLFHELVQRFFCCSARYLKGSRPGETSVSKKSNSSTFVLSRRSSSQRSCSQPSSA
Kind of series: Binding affinity against oxytocin receptor (rOTr) in DES pretreated rat uterine.

Series [5] is described as follows: Half life period after 3 mg/kg iv administration in the rat. The series is classed as ADME, organism-based. The arrangement: dose 3 mg/kg, route intravenous. Conditions: in vivo.
Series [6] can be described thus: Oral bioavailability in rat. The series is classed as ADME, organism-based. The following applies: in vivo.
Series [7] relates to Rattus norvegicus. Kind of series: Maximum plasma concentration after 20 mg/kg oral administration in rat. The arrangement: dose 20 mg/kg, route oral. The class given is ADME, organism-based. The following applies: in vivo.

Broadly, the Ki is the equilibrium dissociation constant of an inhibitor or competing ligand from its target. `CCC(Oc1ccc(C(=O)N2CCC(N3C(=O)OCc4ccccc43)CC2)c(OC)c1)c1ccccc1` (stereo not given) gave a Ki at Oxytocin receptor [1] of 58 nM. One may read the half-life as the time needed for the level to fall by half in the phase considered. Turning to `COc1cc(OC(C)c2ccccc2)ccc1C(=O)N1CCC(N2C(=O)OCc3ccccc32)CC1` (stereo not given), the half-life in series [2] is below 30 min. In turn, `CCOc1ccc(C(=O)N2CCC(N3C(=O)OCc4ccccc43)CC2)c(OC)c1` yielded a Ki at Oxytocin receptor [1] of 15 nM. At Oxytocin receptor [1], `COc1cc(OC(C)C)ccc1C(=O)N1CCC(N2C(=O)OCc3ccccc32)CC1` showed an inhibitory constant (Ki) of 17 nM. The compound `COc1cc(OC(C)c2cccnc2)ccc1C(=O)N1CCC(N2C(=O)OCc3ccccc32)CC1` (stereo not given) displayed an AD50 in the series filed under Rattus norvegicus [3] of 1.2 mg/kg. For `COc1cc(O[C@H](C)c2cc[n+]([O-])cc2)c(F)cc1C(=O)N1CCC(N2C(=O)OCc3ccccc32)CC1`, in the series listed under Rattus norvegicus [3], the AD50 worked out at 0.78 mg/kg. Also, the Ki at Oxytocin receptor [4] worked out at 9.9 nM; on Oxytocin receptor [1] it was 7.34 nM.

The bioavailability is the share of a dose that reaches the circulation, judged against a reference dose that is usually intravenous. The low end stands for little systemic uptake, the high end for much systemic uptake. Take `COc1cc(OC2CCN(C(C)=O)CC2)ccc1C(=O)N1CCC(N2C(=O)OCc3ccccc32)CC1`: in series [5], the half-life was around 30 min. Further, the AD50 in the series filed under Rattus norvegicus [3] came out at 0.55 mg/kg. For the same compound, the bioavailability in series [6] was found to be 39%. In the series on Rattus norvegicus [7], this compound registered a Cmax of 3.3 uM equiv. The same compound had a Ki on Oxytocin receptor [1] of 9.3 nM. In the case of `COc1ccc(C(=O)N2CCC(N3C(=O)OCc4ccccc43)CC2)c(OC)c1`, the Ki was 120 nM at Oxytocin receptor [4] and 87 nM on Oxytocin receptor [1].
